Measured values: PubChem BioAssay AID330 (DTP/NCI, 2004)
Several values for one entry are separate records, joined by “and”; a condition that tells them apart may be missing. Equal values may be shown once. Inconclusive results and toxic doses are left out.

Tested on: P388 leukemia ip, CD2F1 mice, survival T/C
Experiment: NCI In Vivo Anticancer Drug Screen. Data for tumor model P388 Leukemia (intraperitoneal) in CD2F1 (CDF1) mice
Conditions: endpoint: median survival time, higher = longer survival
In short: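 Mice carrying the transplanted tumor received test compound or vehicle. Survival was recorded in each group, and the value is the treated-group measurement divided by that of the vehicle-treated control group.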

Question: How did the T/C (dose: 0.03 mg/kg/injection, schedule: Q04DX003 (ip), vehicle: other) turn out when COc1cccc2c1C(=O)c1c(O)c3c(c(O)c1C2=O)CC(O)(C(=O)CO)CC3OC1CC(N)C(O)C(C)O1 (stereo not drawn) was run?
Answer: Its T/C is 104 % of control.

Question: And the T/C (dose: 0.05 mg/kg/injection, schedule: Q04DX003 (ip), vehicle: other)?
Answer: Its T/C is 104 % of control.

Question: What about the T/C (dose: 0.05 mg/kg/injection, schedule: Q04DX003 (ip), vehicle: saline) of the same molecule?
Answer: Its T/C is 110 % of control.

Question: And the T/C (dose: 0.08 mg/kg/injection, schedule: Q04DX003 (ip), vehicle: other)?
Answer: The T/C was 115 % of control.

Question: And the T/C (dose: 0.1 mg/kg/injection, schedule: Q04DX003 (ip), vehicle: other)?
Answer: The T/C was 98 % of control.

Question: And the T/C (dose: 0.12 mg/kg/injection, schedule: Q04DX003 (ip), vehicle: other)?
Answer: Its T/C is 122 % of control.

Question: What about the T/C (dose: 0.3 mg/kg/injection, schedule: Q04DX003 (ip), vehicle: other) of the same molecule?
Answer: The T/C was 112 % of control.

Question: What about the T/C (dose: 0.38 mg/kg/injection, schedule: Q01DX009 (ip), vehicle: water) of the same molecule?
Answer: The T/C was 150 % of control.

Question: What about the T/C (dose: 0.5 mg/kg/injection, schedule: Q04DX003 (ip), vehicle: other) of the same molecule?
Answer: The T/C was 100 % of control.

Question: And the T/C (dose: 0.6 mg/kg/injection, schedule: Q04DX003 (ip), vehicle: saline)?
Answer: Its T/C is 154 % of control.

Question: And the T/C (dose: 0.75 mg/kg/injection, schedule: Q01DX009 (ip), vehicle: water)?
Answer: Its T/C is 159 % of control.

Question: And the T/C (dose: 1.0 mg/kg/injection, schedule: Q04DX003 (ip), vehicle: other)?
Answer: The T/C was 100 % of control.

Question: And the T/C (dose: 1.0 mg/kg/injection, schedule: Q04DX003 (ip), vehicle: saline)?
Answer: Its T/C is 110 % of control and 106 % of control.

Question: And the T/C (dose: 1.13 mg/kg/injection, schedule: Q04DX003 (ip), vehicle: water)?
Answer: Its T/C is 120 % of control.

Question: And the T/C (dose: 1.3 mg/kg/injection, schedule: Q04DX003 (ip), vehicle: other)?
Answer: Its T/C is 152 % of control.

Question: And the T/C (dose: 1.3 mg/kg/injection, schedule: Q04DX003 (ip), vehicle: saline)?
Answer: The T/C was 156 % of control.

Question: And the T/C (dose: 1.5 mg/kg/injection, schedule: Q01DX009 (ip), vehicle: water)?
Answer: Its T/C is 165 % of control.

Question: And the T/C (dose: 1.56 mg/kg/injection, schedule: Q04DX003 (ip), vehicle: saline)?
Answer: Its T/C is 163 % of control.

Question: What about the T/C (dose: 1.9 mg/kg/injection, schedule: Q04DX003 (ip), vehicle: other) of the same molecule?
Answer: The T/C was 153 % of control.

Question: And the T/C (dose: 1.9 mg/kg/injection, schedule: Q04DX003 (ip), vehicle: saline)?
Answer: Its T/C is 156 % of control.

Question: And the T/C (dose: 2.0 mg/kg/injection, schedule: Q04DX003 (ip), vehicle: other)?
Answer: Its T/C is 97 % of control.

Question: And the T/C (dose: 2.0 mg/kg/injection, schedule: Q04DX003 (ip), vehicle: saline)?
Answer: Its T/C is 113 % of control and 116 % of control.

Question: What about the T/C (dose: 2.25 mg/kg/injection, schedule: Q04DX003 (ip), vehicle: water) of the same molecule?
Answer: Its T/C is 121 % of control.

Question: What about the T/C (dose: 2.8 mg/kg/injection, schedule: Q04DX003 (ip), vehicle: other) of the same molecule?
Answer: Its T/C is 169 % of control.

Question: And the T/C (dose: 2.8 mg/kg/injection, schedule: Q04DX003 (ip), vehicle: saline)?
Answer: The T/C was 182 % of control.

Question: And the T/C (dose: 2.9 mg/kg/injection, schedule: Q01DX009 (ip), vehicle: saline)?
Answer: The T/C was 104 % of control.

Question: And the T/C (dose: 3.0 mg/kg/injection, schedule: Q01DX009 (ip), vehicle: water)?
Answer: Its T/C is 158 % of control.

Question: And the T/C (dose: 3.0 mg/kg/injection, schedule: Q04DX003 (ip), vehicle: water)?
Answer: The T/C was 114 % of control.

Question: And the T/C (dose: 3.12 mg/kg/injection, schedule: Q04DX003 (ip), vehicle: saline)?
Answer: The T/C was 170 % of control.

Question: What about the T/C (dose: 3.13 mg/kg/injection, schedule: Q01DX009 (ip), vehicle: water) of the same molecule?
Answer: Its T/C is 163 % of control.

Question: And the T/C (dose: 3.13 mg/kg/injection, schedule: Q04DX003 (ip), vehicle: other)?
Answer: The T/C was 118 % of control.

Question: What about the T/C (dose: 4.0 mg/kg/injection, schedule: Q04DX003 (ip), vehicle: other) of the same molecule?
Answer: The T/C was 115 % of control.

Question: What about the T/C (dose: 4.0 mg/kg/injection, schedule: Q04DX003 (ip), vehicle: saline) of the same molecule?
Answer: The T/C was 119 % of control.

Question: And the T/C (dose: 4.2 mg/kg/injection, schedule: Q04DX003 (ip), vehicle: other)?
Answer: The T/C was 179 % of control.

Question: And the T/C (dose: 4.2 mg/kg/injection, schedule: Q04DX003 (ip), vehicle: saline)?
Answer: The T/C was 180 % of control.

Question: And the T/C (dose: 5.8 mg/kg/injection, schedule: Q01DX009 (ip), vehicle: saline)?
Answer: Its T/C is 124 % of control.

Question: And the T/C (dose: 6.0 mg/kg/injection, schedule: Q01DX009 (ip), vehicle: water)?
Answer: Its T/C is 183 % of control.

Question: And the T/C (dose: 6.25 mg/kg/injection, schedule: Q01DX009 (ip), vehicle: water)?
Answer: Its T/C is 200 % of control.

Question: And the T/C (dose: 6.25 mg/kg/injection, schedule: Q04DX003 (ip), vehicle: other)?
Answer: The T/C was 120 % of control.

Question: And the T/C (dose: 6.25 mg/kg/injection, schedule: Q04DX003 (ip), vehicle: saline)?
Answer: The T/C was 170 % of control.

Question: What about the T/C (dose: 6.3 mg/kg/injection, schedule: Q04DX003 (ip), vehicle: other) of the same molecule?
Answer: The T/C was 179 % of control.

Question: What about the T/C (dose: 6.3 mg/kg/injection, schedule: Q04DX003 (ip), vehicle: saline) of the same molecule?
Answer: The T/C was 168 % of control.

Question: And the T/C (dose: 7.5 mg/kg/injection, schedule: Q04DX003 (ip), vehicle: clinical formulation)?
Answer: The T/C was 161 % of control.
